Drawing on PubChem BioAssay (NCI), this text covers TGI and GI50 for 24 compounds.

Test systems include SNB-75 CNS; SK-OV-3 ovarian; HOP-92 NSCLC; COLO 205 colon; UO-31 renal; SF-539 CNS; NCI-H23 lung; CAKI-1 renal; HL-60(TB) leukemia.
What all share (assay): DTP human tumour cell line panel, 48 h

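Test compounds were applied to cells in 96-well plates for 48 hours at 5 doses. At the GI50, growth is halved. The concentration for full growth arrest is given as TGI.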 Some results are limits rather than exact numbers.

Turning to `O=C1C2Nc3ccccc3SC2C(=O)N1c1ccc(Br)cc1` (centres undefined), the TGI (as a rule, the concentration at which net growth stops) with SNB-75 CNS was 60.7 µM; in the test with SK-OV-3 ovarian it was 61.1 µM; with HOP-92 NSCLC, 33.2 µM; in the test on COLO 205 colon, > 100 µM; with UO-31 renal, 68.2 µM; in the test with SF-539 CNS, > 100 µM. Also, the TGI in the test on NCI-H23 lung was > 100 µM.
Turning to `COc1ccc(C/C(=N/O)C(=O)NCCc2cc(Br)c(OCCCN(C)C)c(Br)c2)cc1Br`, the TGI was 55 µM with SNB-75 CNS; 69.4 µM in the test with CAKI-1 renal; 28.1 µM with HL-60(TB) leukemia; 40.2 µM with COLO 205 colon; 42.3 µM in the test on UO-31 renal; 29.6 µM in the test on SF-539 CNS.
For `CCC(C)CCOC(=O)c1ccc(N=Cc2ccc(C=Nc3ccc(C(=O)OCCC(C)CC)cc3)cc2)cc1` (centres undefined), the TGI in the test with SNB-75 CNS, in the test with SK-OV-3 ovarian, with HOP-92 NSCLC, in the test with CAKI-1 renal, in the test with HL-60(TB) leukemia and in the test with COLO 205 colon was > 100 µM in each case. Further, the TGI with UO-31 renal, in the test with SF-539 CNS and in the test on NCI-H23 lung was > 100 µM throughout.
`CCOC(=O)/C(=C/N1CCN(C(=O)c2ccco2)C1=S)C(=O)c1ccccc1`: the GI50 – broadly, the concentration that inhibits growth by half – in the test with SNB-75 CNS is 46 µM; with SK-OV-3 ovarian it was 20 µM; with HOP-92 NSCLC it was 23 µM; in the test with CAKI-1 renal, 15.9 µM; in the test on HL-60(TB) leukemia, 14.9 µM; in the test on COLO 205 colon it was 19.2 µM. The results for the GI50 in the test with UO-31 renal and with NCI-H23 lung were 9.99 µM and 7.7 µM, respectively. In addition, the TGI in the test with SNB-75 CNS was > 50 µM; with SK-OV-3 ovarian, > 50 µM; with HOP-92 NSCLC, > 50 µM; in the test on CAKI-1 renal it was > 50 µM; in the test on HL-60(TB) leukemia, 31 µM; in the test on COLO 205 colon it was > 50 µM. Moreover, the TGI with UO-31 renal is 19.3 µM; with NCI-H23 lung, 14.7 µM.
Consider `COC(=O)C1CCc2c1c(=O)n1c([nH]c3ccccc31)c2C#N` (centres undefined), for which the TGI in the test on SNB-75 CNS, with SK-OV-3 ovarian, with HOP-92 NSCLC, with CAKI-1 renal, in the test on HL-60(TB) leukemia and in the test with COLO 205 colon was > 100 µM throughout. Moreover, the TGI in the test with UO-31 renal, with SF-539 CNS and in the test with NCI-H23 lung was > 100 µM throughout.
With `O=C(NCCCCCCCCCCCCNC(=O)c1cccc2ccccc12)c1cccc2ccccc12`, the TGI was > 54.6 µM in the test with SNB-75 CNS; > 66.8 µM in the test with SK-OV-3 ovarian; > 72.1 µM with HOP-92 NSCLC; 68.2 µM with CAKI-1 renal; > 80.1 µM in the test with HL-60(TB) leukemia; > 100 µM in the test with COLO 205 colon. Besides, the TGI was > 61 µM in the test on UO-31 renal, 4.73 µM with SF-539 CNS and > 100 µM in the test on NCI-H23 lung.
For the compound `Nc1ncnc2c1ncn2[C@]1(CO)C=C(CO)C(O)C1O` (some centres undefined), the TGI with SNB-75 CNS, in the test with SK-OV-3 ovarian, with HOP-92 NSCLC, in the test on CAKI-1 renal, with HL-60(TB) leukemia and in the test with COLO 205 colon was > 100 µM throughout. The TGI with NCI-H23 lung is > 100 µM.
Regarding `Cc1ccc(S(=O)(=O)OCCn2cnc3nc(NC(=O)c4ccccc4)[nH]c(=O)c32)cc1`, the TGI with SNB-75 CNS, in the test on SK-OV-3 ovarian, with HOP-92 NSCLC, in the test with CAKI-1 renal, in the test with HL-60(TB) leukemia and with COLO 205 colon was > 100 µM in each case. The TGI in the test on UO-31 renal and with SF-539 CNS was > 100 µM in each case.
In the case of `CC1=Nc2ccccc2S/C1=C(/C)NNS(=O)(=O)c1ccc(C)cc1`, the TGI with SNB-75 CNS, in the test with SK-OV-3 ovarian, with HOP-92 NSCLC, in the test with CAKI-1 renal, in the test with HL-60(TB) leukemia and in the test on COLO 205 colon was > 100 µM each time. The TGI in the test with UO-31 renal, with SF-539 CNS and in the test with NCI-H23 lung was > 100 µM throughout.
Regarding `O=C(/C=C/c1cc(Cl)cc(Cl)c1O)c1cccc(O)c1`, the TGI in the test on SNB-75 CNS is 94.4 µM; in the test on SK-OV-3 ovarian it was > 100 µM; in the test on HOP-92 NSCLC, 84.9 µM; with CAKI-1 renal, > 100 µM; in the test with HL-60(TB) leukemia it was 93.9 µM; with COLO 205 colon, 32.7 µM. For the same compound, the total growth inhibition concentration (TGI) with UO-31 renal was > 100 µM; in the test on SF-539 CNS it was 73.3 µM; in the test on NCI-H23 lung it was > 100 µM.
In the case of `Cc1cn(C2CC(O)C(COC(=O)c3ccccc3)O2)c(=O)[nH]c1=O` (centres undefined), the TGI in the test on HOP-92 NSCLC, in the test with CAKI-1 renal, in the test with HL-60(TB) leukemia, in the test on COLO 205 colon, in the test with SF-539 CNS and in the test on NCI-H23 lung was > 100 µM in each case.
Consider `COC(=O)C(Cc1cc(OC)c(OC)c(OC)c1)C(=O)OC`, for which the TGI in the test on SK-OV-3 ovarian, in the test with HOP-92 NSCLC, in the test on CAKI-1 renal, with HL-60(TB) leukemia, with COLO 205 colon and with NCI-H23 lung was > 320 µM in each case.
On to `N#Cc1c(-c2ccc(Cl)c(Cl)c2)c(-c2ccc(Cl)c(Cl)c2)nn(CC(=O)O)c1=O`, for which the TGI in the test with SNB-75 CNS, in the test with SK-OV-3 ovarian, in the test on HOP-92 NSCLC, with CAKI-1 renal, in the test on HL-60(TB) leukemia and with COLO 205 colon was > 100 µM throughout. Also, in the test with UO-31 renal, the TGI was > 100 µM.
`COC(=O)CC(NC(=O)OCc1ccccc1)C(C(C)=O)C(=O)OCc1ccccc1` (centres undefined): the TGI with SNB-75 CNS was 30.8 µM; with SK-OV-3 ovarian it was > 31.6 µM; in the test on HOP-92 NSCLC, > 31.6 µM; in the test with CAKI-1 renal, > 31.6 µM; in the test on HL-60(TB) leukemia it was > 31.6 µM; with COLO 205 colon, > 31.6 µM. In addition, the TGI in the test on UO-31 renal, with SF-539 CNS and in the test on NCI-H23 lung was > 31.6 µM each time.
Consider `C[C@@H](NC1CCCC[C@H]1O)c1ccccc1` (some centres undefined), for which the TGI with SNB-75 CNS, with SK-OV-3 ovarian, with HOP-92 NSCLC, in the test on HL-60(TB) leukemia, with COLO 205 colon and in the test with UO-31 renal was > 100 µM in each case. For the same compound, the TGI with SF-539 CNS and with NCI-H23 lung was > 100 µM throughout.
As for `Cn1c2c(c3ccccc31)CCN(CCCCN1CCCCC1)C2=O`, the TGI in the test with SK-OV-3 ovarian, with HOP-92 NSCLC, in the test on CAKI-1 renal, in the test on HL-60(TB) leukemia, with COLO 205 colon and in the test on UO-31 renal was > 100 µM throughout. Also, the TGI with SF-539 CNS and in the test on NCI-H23 lung was > 100 µM throughout.
`C/C(=C1/N=C(c2cc([N+](=O)[O-])ccc2Cl)N(c2cccc(C)c2)C1=O)c1cc2ccccc2oc1=O`: the concentration for total growth inhibition (TGI) in the test on SNB-75 CNS, in the test on SK-OV-3 ovarian, with HOP-92 NSCLC, in the test with CAKI-1 renal, in the test with HL-60(TB) leukemia and in the test on COLO 205 colon was > 100 µM throughout. Also, the TGI with UO-31 renal and in the test with NCI-H23 lung was > 100 µM in each case.
For `Cc1nc(-n2nc(-c3ccccc3)cc2-c2ccccc2)sc1C(=O)/C=C/c1ccc(/C=C/C(=O)c2sc(-n3nc(-c4ccccc4)cc3-c3ccccc3)nc2C)cc1`, the TGI in the test with SK-OV-3 ovarian is > 100 µM; in the test with CAKI-1 renal it was 51.6 µM; in the test on HL-60(TB) leukemia it was > 100 µM; in the test on COLO 205 colon, 39.1 µM; in the test on UO-31 renal, 42 µM; in the test with SF-539 CNS it was 33.7 µM. Besides, in the test with NCI-H23 lung, the TGI stood at 35.3 µM.
With `O=C1NC(Cc2ccc(O)cc2)C(=O)N2CCCC12` (centres undefined), the TGI with SNB-75 CNS, in the test with SK-OV-3 ovarian, with HOP-92 NSCLC, in the test on CAKI-1 renal, with HL-60(TB) leukemia and in the test with COLO 205 colon was > 100 µM throughout. Also, the TGI in the test on UO-31 renal and with SF-539 CNS was > 100 µM each time.
Turning to `COC(=O)CCC(NC(=S)N/N=C(\C)c1cnc2ccccc2n1)C(=O)OC` (centres undefined), the TGI with SNB-75 CNS is > 100 µM; with SK-OV-3 ovarian, > 100 µM; with HL-60(TB) leukemia, 9.3 µM; in the test on COLO 205 colon, 5.37 µM; in the test with UO-31 renal, > 100 µM; with SF-539 CNS, > 100 µM. In addition, the TGI in the test on NCI-H23 lung is > 100 µM.
With `CN(C)C=Nc1ccn(CCO)c(=O)n1`, the TGI with SNB-75 CNS, in the test on SK-OV-3 ovarian, in the test on HL-60(TB) leukemia, in the test with COLO 205 colon, in the test on UO-31 renal and in the test on SF-539 CNS was > 100 µM throughout. The TGI in the test with NCI-H23 lung was > 100 µM.
As to `COC(=O)C(C(=O)C(=O)Nc1c(C)cccc1C)c1cnc2ccccc2n1` (centres undefined), the TGI in the test with SNB-75 CNS, in the test with SK-OV-3 ovarian, in the test with HOP-92 NSCLC, with CAKI-1 renal, in the test with HL-60(TB) leukemia and with COLO 205 colon was > 100 µM throughout. Further, the TGI with UO-31 renal and with NCI-H23 lung was > 100 µM throughout.
With `O=C(N/C(=C\c1ccc(Cl)cc1)c1nc2ccccc2[nH]1)c1ccccc1`, the TGI in the test with SNB-75 CNS was found to be 47.2 µM; with SK-OV-3 ovarian it was 79.4 µM; with HOP-92 NSCLC it was 33.6 µM; with CAKI-1 renal it was 54.5 µM; in the test on COLO 205 colon, 35.6 µM; in the test with UO-31 renal it was 42.2 µM. Besides, the total growth inhibition concentration (TGI) with SF-539 CNS worked out at 31.1 µM; in the test with NCI-H23 lung it was 42.9 µM.
In the case of `CN1C(=O)CCC1(O)C1C=CC=CC1` (centres undefined), the TGI with SNB-75 CNS, in the test with SK-OV-3 ovarian, in the test with CAKI-1 renal, with HL-60(TB) leukemia, in the test with COLO 205 colon and in the test with UO-31 renal was > 100 µM in each case. The TGI with SF-539 CNS and with NCI-H23 lung was > 100 µM in each case.
